Results: the supplement of paper PMC10883282

What was measured:
Assay in all cases: relative viability vs DMSO control (72 h) (fraction); higher = more viable cells
A204 = tested on: A204
How it was run: (§1)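 Sarcoma cell lines went into 384-well plates at densities chosen to reach 80–90% confluence. After 24 h, each well received 2.5 µl of serially diluted compound, with source plates running from 10 mM to 0.0002 mM, and the plates were kept 72 h at 37 °C, 5% CO2, alongside 0.1% DMSO vehicle and a 5 µM positive control. Relative viability was derived from ATPLite readings as percent growth and averaged over up to triplicate wells. The data were then rescaled so that 1 stands for full and 0 for none.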

KHOS-NP = tested on: KHOS-NP
How it was run: as §1

SW684 = tested on: SW684
How it was run: as §1

SW872 = tested on: SW872
How it was run: as §1

HS729 = tested on: HS729
How it was run: as §1

NC(=O)c1cccc2cn(-c3ccc([C@@H]4CCCNC4)cc3)nc12 [Niraparib]
relative viability
Conditions	A204	HS729	KHOS-NP	SW684	SW872
0.00017 µM	1.07	0.876	1.05	1.14	1.02
0.00051 µM	1.09	0.894	1.04	1.15	1.04
0.00152 µM	1.05	0.893	1.04	1.17	1.03
0.00457 µM	1.07	0.89	1.06	1.13	1.04
0.01372 µM	1.05	0.886	1.045	1.09	0.997
0.04115 µM	1.07	0.869	1.04	1.13	1.01
0.1235 µM	1.064	0.917	1.06	1.14	1.05
0.3704 µM	0.998	0.868	1.08	1.1	1.07
1.111 µM	0.964	0.884	1.05	1.13	1.06
3.333 µM	0.885	0.877	1.079	1.17	1.07
10 µM	0.691	0.801	1.04	1.09	1.02

C=CC(=O)Nc1cc(Nc2nccc(-c3cn(C)c4ccccc34)n2)c(OC)cc1N(C)CCN(C)C [Osimertinib]
relative viability
Conditions	A204	HS729	KHOS-NP	SW684	SW872
0.00017 µM	1.03	1.06	1.1	1.11	1.078
0.00051 µM	1.04	0.954	1.11	1.18	1.06
0.00152 µM	1.05	1.04	1.084	1.21	1.06
0.00457 µM	1.04	0.976	1.08	1.2	1.08
0.01372 µM	1.01	0.944	1.07	1.16	1.04
0.04115 µM	1.03	0.933	1.06	1.13	1.02
0.1235 µM	1.03	0.907	1.06	1.13	1.03
0.3704 µM	0.9068	0.822	1.05	1.12	0.988
1.111 µM	0.777	0.78	1.05	1.11	0.894
3.333 µM	0.582	0.681	1.02	0.984	0.761
10 µM	0.141	0.533	0.505	0.063	0.384

C1=N/C2=N/c3ccc(OCCN4CCCC4)c(c3)COC/C=C/COCc3cccc(c3)C(=C1)N2 [Pacritinib]
relative viability
Conditions	A204	HS729	KHOS-NP	SW684	SW872
0.00017 µM	1.07	1.1	1.09	1.14	1.11
0.00051 µM	1.05	1.055	1.12	1.17	1.08
0.00152 µM	1.07	1.03	1.107	1.15	1.08
0.00457 µM	1.1	1	1.11	1.19	1.1
0.01372 µM	1.07	1.02	1.125	1.15	1.1
0.04115 µM	1.02	0.9592	1.117	1.11	1.06
0.1235 µM	0.918	0.947	1.116	0.977	1.02
0.3704 µM	0.654	0.928	1.112	0.781	0.839
1.111 µM	0.398	0.698	0.996	0.544	0.541
3.333 µM	0.0367	0.576	0.451	0.189	0.131
10 µM	0.0523	0.232	0.516	0.0544	0.0932

NC(=O)c1cnc2[nH]ccc2c1N[C@@H]1[C@@H]2CC3C[C@H]1C[C@@](O)(C3)C2 [Peficitinib]
relative viability
Conditions	A204	HS729	KHOS-NP	SW684	SW872
0.00017 µM	1.06	1.04	1.09	1.08	1.01
0.00051 µM	1.07	1.02	1.06	1.09	1.03
0.00152 µM	1.07	1.03	1.08	1.11	1.037
0.00457 µM	1.06	1.04	1.07	1.12	0.985
0.01372 µM	1.06	0.984	1.05	1.12	1.033
0.04115 µM	1.07	1	1.06	1.12	1.03
0.1235 µM	1.02	0.985	1.07	1.12	1.02
0.3704 µM	0.959	1.02	1.07	1.15	0.996
1.111 µM	0.913	0.977	1.07	1.17	0.999
3.333 µM	0.705	0.9905	1.02	1.09	0.932
10 µM	0.435	0.758	0.671	0.827	0.767

CCCCCCCCCCCCCCCCCCOP(=O)([O-])OC1CC[N+](C)(C)CC1 [Perifosine]
relative viability
Conditions	A204	HS729	KHOS-NP	SW684	SW872
0.00017 µM	1.05	1.06	1.09	1.08	1.07
0.00051 µM	1.08	0.9606	1.1	1.16	1.1
0.00152 µM	1.07	1.01	1.099	1.19	1.05
0.00457 µM	1.07	1.02	1.11	1.14	1.03
0.01372 µM	1.06	0.924	1.1	1.15	0.986
0.04115 µM	1.07	0.931	1.08	1.18	1.05
0.1235 µM	1.08	0.987	1.067	1.18	1.04
0.3704 µM	1.06	0.909	1.07	1.21	0.982
1.111 µM	1.03	0.902	1.03	1.24	0.891
3.333 µM	1.06	0.904	0.984	1.16	0.629
10 µM	1.08	0.913	0.496	1.12	0.519

FC(F)(F)c1ccc(CNc2ccc(Cc3c[nH]c4ncc(Cl)cc34)cn2)cn1 [Pexidartinib]
relative viability
Conditions	A204	HS729	KHOS-NP	SW684	SW872
0.00017 µM	1.14	1.05	1.106	1.14	1.12
0.00051 µM	1.14	1.01	1.1	1.2	1.13
0.00152 µM	1.09	1.01	1.084	1.19	1.1
0.00457 µM	1.08	0.978	1.08	1.2	1.08
0.01372 µM	1.07	0.955	1.07	1.15	1.05
0.04115 µM	1.08	0.962	1.05	1.15	1.06
0.1235 µM	1.05	0.903	1.05	1.16	1.05
0.3704 µM	0.898	0.902	1.032	1.13	1.03
1.111 µM	0.576	0.861	1.024	1.13	1.01
3.333 µM	0.463	0.767	1.022	1.14	0.999
10 µM	0.393	0.683	0.987	1.12	0.974

CCOc1cc2ncc(C#N)c(Nc3ccc(OCc4ccccn4)c(Cl)c3)c2cc1NC(=O)/C=C/[C@H]1CCCN1C [Pyrotinib]
relative viability
Conditions	A204	HS729	KHOS-NP	SW684	SW872
5.081 pM	1.04	0.989	1.08	1.15	1.05
15.24 pM	1.07	0.917	1.12	1.24	1.06
45.72 pM	1.08	0.962	1.08	1.221	1.06
0.000137174 µM	1.04	0.9073	1.11	1.188	1.06
0.000411523 µM	1.06	0.875	1.07	1.19	1.07
0.00123457 µM	1.07	0.866	1.09	1.17	1.05
0.0037037 µM	1.09	0.857	1.07	1.21	0.987
0.0111111 µM	1.11	0.918	1.1	1.19	1.01
0.0333333 µM	1.07	0.91	1.073	1.15	1.04
0.1 µM	1.1	0.858	1.09	1.17	0.987
0.3 µM	1.06	0.808	1.08	1.1	0.913

Cc1cn(-c2cc(NC(=O)c3ccc(C)c(Nc4nccc(-c5cnccn5)n4)c3)cc(C(F)(F)F)c2)cn1 [Radotinib]
relative viability
Conditions	A204	HS729	KHOS-NP	SW684	SW872
0.00017 µM	1.09	0.995	1.12	1.13	1.06
0.00051 µM	1.11	1.01	1.09	1.17	1.07
0.00152 µM	1.09	1.02	1.11	1.2	1.07
0.00457 µM	1.13	1.03	1.11	1.21	1.07
0.01372 µM	1.14	0.995	1.12	1.17	1.07
0.04115 µM	1.13	0.99	1.12	1.19	1.07
0.1235 µM	1.11	1.02	1.11	1.26	1.08
0.3704 µM	1.07	1.03	1.1	1.33	1.06
1.111 µM	0.836	0.995	1.1	1.38	0.98
3.333 µM	0.629	0.8744	1.09	1.24	0.915
10 µM	0.451	0.875	1.07	1.22	0.889
